Test results published in patent US20220257595A1, “MACITENTAN FOR USE IN TREATING PORTOPULMONARY HYPERTENSION” (ACTELION PHARMACEUTICALS LTD, priority 2019, published 2022).

Tested on: patients with PoPH
Assay: Post-hoc: liver transplant waitlist mortality risk (PVR categories)
Type: in vivo, human
Experimental: Post-Hoc, Exploratory Criteria: • Proportion of patients with NT-proBNP decrease from above 300 ng/L to below this threshold • Odds ratio for improvement to a more favorable liver transplant perioperative risk category • Odds ratio for becoming eligible for the MELD exception • Odds ratio for improvement to a more favorable waitlist mortality risk category
Risk categories related to liver transplant (transplant perioperative risk classification, MELD exception eligibility and waitlist mortality risk) were analyzed descriptively by treatment group using shift tables from baseline to Week 12 with categories as defined in Example 1.
LT perioperative risk classification, MELD exception eligibility, and waitlist mortality analyses were performed after the database lock and SDTMs delivery for the Double-Blind period. Number (%) of patients in following categories were summarized and presented in shift tables. The estimated odds ratio for risk improvement and corresponding 95% confidence intervals were obtained from an exact logistic regression (macitentan vs placebo) with factors for treatment and risk category at baseline.
The outcomes of PoPH patients who were granted MELD exception in the US were analyzed. […] Age, initial MELD score and initial PVR were significant predictors of waitlist mortality, although their accuracy was limited. The results were illustrated by defining 4 groups depending on their PVR and MELD score: high PVR (PVR>450 dyn·sec·cm^−5), low PVR (PVR ≤450 dyn·sec·cm^−5), high MELD (MELD >12) or low MELD (MELD ≤12).

CCCNS(=O)(=O)Nc1ncnc(OCCOc2ncc(Br)cn2)c1-c1ccc(Br)cc1 [macitentan, N-[5-(4-Bromophenyl)-6-[2-[(5-bromo-2-pyrimidinyl)oxy]ethoxy]-4-pyrimidinyl]-N′-propylsulfamide]
PVR risk categories (waitlist mortality): Week 12 Category 2 (PVR > 450 dyn · sec/cm^5) (Baseline Category 2 (n = 30), Full analysis set, 10 mg, N = 43): 9 n (%) | Odds of changing to the low waitlist mortality risk group, macitentan vs placebo (Week 12, exact logistic regression): 10.48 times | Patients moving from waitlist high-risk group (PVR >450 dyn·s·cm^−5) to low-risk group (after 12 weeks, FAS no imputation, 18 patients): 41.9% | PVR risk categories: Between-treatment odds ratio for improvement, OR (macitentan vs placebo, exact logistic regression, 95% CI 2.381, 66.810, p-value 0.0005): 10.479
